# Reference: patent US20090076122A1, “PARP Modulators and Treatment of Cancer” (BIPAR SCIENCES, INC., priority 2005, published 2009)
# Assays:
# solid tumor colon cancer = experiment: Treatment of a subject suffering from solid tumor colon cancer; type: in vivo; details: orally or parenterally; after few days
# Procedure: A subject suffering from solid tumor colon cancer is treated with a therapeutically effective amount of compound of formula
# (§1) where the compound is administered orally or parenterally.
# [1] = molecular target: T1, PARP-1 arginine-34 mutant (R34G, Zn2+ finger 1) (Homo sapiens, UniProt P09874, R34G); experiment: Enzymatic activity of arginine-34 (R34G) mutant PARP-1 with ATP; type: biochemical; details: arginine-34 replaced by glycine in Zn2+ finger 1; 200 μM NAD+, 3 mM spermine, pH 7.3; FIG. 1
# T1 construct: made in house; host or cells: Sf9 (baculovirus)
# Excerpt: (§2) PARP-1 is purified from calf thymus as reported earlier (Molinet et al. (1993) EMBO J. 12:2109-2117). Alternatively recombinant PARP-1 is isolated from Sodoptera Fugiperda (Sf9) cells infected with recombinant baculovirus, expressing the human PARP-1 gene, constructed according to the instructions of Pharmingen. The cDNA of the amino acid exchange mutant R34G and R138 il of PARP-1 is created by the mega primer method (Kannann et al. (1989) Nucl Acids Res 17:5404). The mutated gene is cloned into the transfer vector pV 1392 and the recombinant virus is generated by the Baculogold technology of Pharmigen. The mutated proteins are expressed in Sf9 cells, purified and assayed as reported (Huang et al. (2004) Biochemistry 43:217-223; Kirsten et al. (2004) Methods in Molecular Biology 287, Epigenetics Protocols 137-149).
# (§3) Assays are carried out as described (Kun et al. (2004) Biochemistry, 43:210-216) in triplicate (200 μM 3H labeled NAD+, 28 dpm/pmol, 0.5 pmol PARP-1, 3 mM spermine, pH 7.3 t=7.5 min). Identical results are obtained when ATP is replaced by its non-hydrolysable analog (Kun et al. (2004) Biochemistry, 43:210-216).
# [2] = molecular target: T2, PARP-1 arginine-138 mutant (isoleucine, Zn2+ finger 2) (Homo sapiens, UniProt P09874, R138I); experiment: Enzymatic activity of arginine-138 (R138I) mutant PARP-1 with ATP; type: biochemical; details: arginine-138 mutated to isoleucine in Zn2+ finger 2; FIG. 1
# T2 construct: made in house; host or cells: Sf9 (baculovirus)
# Excerpt: as §2, §3
# [3] = molecular target: T3, PARP-1 activity of Jurkat cell nuclei (Homo sapiens, UniProt P09874); experiment: Effect of ATP on the PARP-1 activity of Jurkat cell nuclei; type: biochemical; details: 1 mM ATP; isolated Jurkat cell nuclei; FIG. 2
# T3 construct: endogenous in cells; host or cells: Jurkat cell nuclei
# Procedure: Poly(ADP-ribose)glycohydrolase (PARG) is purchased from Biomol or Alexis Co, which enzymes are equal in performance. Jurkat cells are cultured as reported (Buday et al. (1996) J Biol Chem 271:6159-6163) and nuclei are prepared by a published method (Smirnova et al. (2000) J Biol Chem 275:9377-9384). Enzymatic assays for PARP-1 are performed as published (deMurcia (2000) From DNA-damage and Stress Signalling to Cell Death: Poly ADP-ribosylation Reactions). PARG activity is analyzed with polyADP-ribosylated PARP-1 as substrate, containing long chains synthesized with spermine as cofactor (Kun et al. (2004) Biochemistry 43:210-216), or short chains where the cofactor is histone H1. The polyADP-ribose is labeled either with 3H or by biotinylated-NAD. PARG activity is quantitatively measured either by assaying the liberated 3H-ADP-ribose by TLC (Kirsten et al. (1991) Exp Cell Res 194:1-8) (chromatography carried out on PEI-cellulose sheets with 0.9 M acetic acid and 0.3 M LiCl as solvent) or by immunoassay of the remaining biotinylated (ADP-ribose)n (Bakondi et al. (2004) Exp Dermatol 13:170-178). All other reagents are of highest analytical purity. […] After separating the proteins on a 8% SDS-PAGE gel, the nitrocellulose-blotted, labeled proteins are detected by incubating with streptavidine-HPO complex (1 μg/ml) and by fluorography. Triplicate results are expressed as densitometric units.
# [4] = molecular target: T3, PARP-1 activity of Jurkat cell nuclei; experiment: Effect of BCNU on the ATP sensitivity of PARP-1 activity of Jurkat cell nuclei; type: biochemical; details: nuclei pre-incubated with 400 nM BCNU for 30 minutes; FIG. 3
# Procedure: Nuclei equivalent to 2×10^5 Jurkat cells are pre incubated in the presence of various concentrations of ATP. Then PARP activities are assayed by admixing biotinylated-NAD (5 μM final conc.) and incubating for ten minutes. After separating the proteins on a 8% SDS-PAGE gel, the nitrocellulose-blotted, labeled proteins are detected by incubating with streptavidine-HPO complex (1 μg/ml) and by fluorography. Triplicate results are expressed as densitometric units. Experiments in triplicate are carried out as described in FIG. 2, with the exception that pre incubation is done with 400 nM of BCNU for 30 minutes.
# [5] = molecular target: T4, PARG activity of Jurkat cell nuclear extract (Homo sapiens, UniProt Q86W56); experiment: Effect of ATP on the glycohydrolase activity of Jurkat cell nuclear extract; type: biochemical; details: 8 mM ATP; polyADP-ribosylated PARP-1 with long polymers (50 ADP-ribose units); FIG. 4
# T4 construct: endogenous in cells; host or cells: Jurkat cell nuclear extract
# Procedure: Poly(ADP-ribose)glycohydrolase (PARG) is purchased from Biomol or Alexis Co, which enzymes are equal in performance. Jurkat cells are cultured as reported (Buday et al. (1996) J Biol Chem 271:6159-6163) and nuclei are prepared by a published method (Smirnova et al. (2000) J Biol Chem 275:9377-9384). Enzymatic assays for PARP-1 are performed as published (deMurcia (2000) From DNA-damage and Stress Signalling to Cell Death: Poly ADP-ribosylation Reactions). PARG activity is analyzed with polyADP-ribosylated PARP-1 as substrate, containing long chains synthesized with spermine as cofactor (Kun et al. (2004) Biochemistry 43:210-216), or short chains where the cofactor is histone H1. The polyADP-ribose is labeled either with 3H or by biotinylated-NAD. PARG activity is quantitatively measured either by assaying the liberated 3H-ADP-ribose by TLC (Kirsten et al. (1991) Exp Cell Res 194:1-8) (chromatography carried out on PEI-cellulose sheets with 0.9 M acetic acid and 0.3 M LiCl as solvent) or by immunoassay of the remaining biotinylated (ADP-ribose)n (Bakondi et al. (2004) Exp Dermatol 13:170-178). All other reagents are of highest analytical purity. Poly(ADP-ribosylated)-PARP-1 (2 μg protein is incubated with 50 μM of biotinylated-NAD as described above) and is attached to the walls of 96-well plates. ([…] et al. (1989) Nucl. Acids Res. 17:5404). […]
# purified PARG = experiment: ATP sensitivity of purified PARG (PAR chain length, substrate concentration); type: biochemical; details: 45 minutes
# Procedure: Poly(ADP-ribose)glycohydrolase (PARG) is purchased from Biomol or Alexis Co, which enzymes are equal in performance. Jurkat cells are cultured as reported (Buday et al. (1996) J Biol Chem 271:6159-6163) and nuclei are prepared by a published method (Smirnova et al. (2000) J Biol Chem 275:9377-9384). Enzymatic assays for PARP-1 are performed as published (deMurcia (2000) From DNA-damage and Stress Signalling to Cell Death: Poly ADP-ribosylation Reactions). PARG activity is analyzed with polyADP-ribosylated PARP-1 as substrate, containing long chains synthesized with spermine as cofactor (Kun et al. (2004) Biochemistry 43:210-216), or short chains where the cofactor is histone H1. The polyADP-ribose is labeled either with 3H or by biotinylated-NAD. PARG activity is quantitatively measured either by assaying the liberated 3H-ADP-ribose by TLC (Kirsten et al. (1991) Exp Cell Res 194:1-8) (chromatography carried out on PEI-cellulose sheets with 0.9 M acetic acid and 0.3 M LiCl as solvent) or by immunoassay of the remaining biotinylated (ADP-ribose)n (Bakondi et al. (2004) Exp Dermatol 13:170-178). All other reagents are of highest analytical purity. Short (Δ-Δ)- or long ([…]-[…])-chain PAR-PARP molecules are prepared as described in the methods and attached to the surface of assay wells. Purified PARG (15 mU/assay) is added to the wells in the presence of various concentrations of ATP and incubated for 45 minutes. The attached amount of polymers is determined in triplicate experiments (zero minute values for short chains were 0.5 OD, and 1.8 OD for long chain polymers). PARG (15 mU/assay) is incubated with various concentrations of 32P-PAR (long chain polymer) in the presence or absence of 6 mM of ATP for 45 minutes and the amount of liberated 32P-ADP-ribose is determined by TLC and liquid scintillation of the cut out portions of the plate located by autoradiography. Experiments are performed in triplicate.
# CNS disease = experiment: Treatment of a subject suffering from CNS disease; type: in vivo; details: orally or parenterally; after few days
# Procedure: A subject suffering from CNS disease is treated with a therapeutically effective amount of compound of formula
# as §1
# inflammation = experiment: Treatment of a subject suffering from inflammation; type: in vivo; details: orally or parenterally; after few days
# Procedure: A subject suffering from inflammation is treated with a therapeutically effective amount of compound of formula
# as §1
# T3 sequence (P09874 whole entry): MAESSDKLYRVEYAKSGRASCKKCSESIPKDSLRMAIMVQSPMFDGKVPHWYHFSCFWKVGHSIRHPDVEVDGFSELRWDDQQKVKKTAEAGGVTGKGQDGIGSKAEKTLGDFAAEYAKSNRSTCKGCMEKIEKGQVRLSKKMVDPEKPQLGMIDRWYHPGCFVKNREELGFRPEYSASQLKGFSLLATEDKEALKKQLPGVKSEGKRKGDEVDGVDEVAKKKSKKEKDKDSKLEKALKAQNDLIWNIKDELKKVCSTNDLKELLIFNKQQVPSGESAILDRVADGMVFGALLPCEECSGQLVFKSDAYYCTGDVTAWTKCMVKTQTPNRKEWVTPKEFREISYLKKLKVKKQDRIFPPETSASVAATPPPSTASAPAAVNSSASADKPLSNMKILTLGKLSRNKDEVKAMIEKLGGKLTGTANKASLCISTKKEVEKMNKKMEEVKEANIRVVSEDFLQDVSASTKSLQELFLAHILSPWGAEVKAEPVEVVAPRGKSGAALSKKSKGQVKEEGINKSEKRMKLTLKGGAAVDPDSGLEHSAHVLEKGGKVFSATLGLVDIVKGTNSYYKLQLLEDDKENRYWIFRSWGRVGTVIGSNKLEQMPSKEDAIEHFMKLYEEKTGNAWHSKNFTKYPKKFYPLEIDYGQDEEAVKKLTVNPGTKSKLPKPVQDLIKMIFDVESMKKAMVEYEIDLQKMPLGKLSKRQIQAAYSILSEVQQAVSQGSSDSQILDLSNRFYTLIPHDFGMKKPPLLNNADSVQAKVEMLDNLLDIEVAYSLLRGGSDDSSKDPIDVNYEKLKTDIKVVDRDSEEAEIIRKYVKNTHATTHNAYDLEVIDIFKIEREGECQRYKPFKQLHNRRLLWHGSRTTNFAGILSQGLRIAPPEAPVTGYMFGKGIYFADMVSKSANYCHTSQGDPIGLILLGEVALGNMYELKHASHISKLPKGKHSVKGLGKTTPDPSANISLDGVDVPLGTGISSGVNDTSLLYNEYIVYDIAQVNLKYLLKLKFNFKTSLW
# T4 sequence (Q86W56 whole entry): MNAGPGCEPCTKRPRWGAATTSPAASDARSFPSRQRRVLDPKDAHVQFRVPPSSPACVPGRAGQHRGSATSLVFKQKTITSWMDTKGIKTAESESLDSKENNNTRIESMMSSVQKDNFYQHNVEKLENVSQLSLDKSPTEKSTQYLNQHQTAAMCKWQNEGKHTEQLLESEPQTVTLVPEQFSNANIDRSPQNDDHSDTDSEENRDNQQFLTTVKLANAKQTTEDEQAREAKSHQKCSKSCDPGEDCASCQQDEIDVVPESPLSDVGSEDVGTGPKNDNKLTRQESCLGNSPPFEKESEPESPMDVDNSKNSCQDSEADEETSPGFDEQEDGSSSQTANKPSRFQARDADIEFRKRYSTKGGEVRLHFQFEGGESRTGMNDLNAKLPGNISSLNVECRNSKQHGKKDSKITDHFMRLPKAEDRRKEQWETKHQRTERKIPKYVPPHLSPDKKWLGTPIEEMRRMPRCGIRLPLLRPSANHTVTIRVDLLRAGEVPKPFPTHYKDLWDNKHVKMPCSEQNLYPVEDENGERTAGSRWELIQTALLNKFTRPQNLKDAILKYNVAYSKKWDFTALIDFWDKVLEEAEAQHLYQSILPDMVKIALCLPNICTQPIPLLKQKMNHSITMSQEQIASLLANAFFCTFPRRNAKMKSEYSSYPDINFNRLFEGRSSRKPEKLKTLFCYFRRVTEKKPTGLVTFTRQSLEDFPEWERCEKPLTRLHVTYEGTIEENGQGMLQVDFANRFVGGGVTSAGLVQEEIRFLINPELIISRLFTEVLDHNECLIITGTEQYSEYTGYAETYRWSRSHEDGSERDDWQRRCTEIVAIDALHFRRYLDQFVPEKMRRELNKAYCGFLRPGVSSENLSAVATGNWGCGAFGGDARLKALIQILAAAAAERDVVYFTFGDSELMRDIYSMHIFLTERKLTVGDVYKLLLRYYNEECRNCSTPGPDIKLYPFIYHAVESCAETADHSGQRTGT
# T1 sequence (P09874 whole entry R34G): as the sequence (P09874 whole entry) above, with R34G counted along it
# T2 sequence (P09874 whole entry R138I): as the sequence (P09874 whole entry) above, with R138I counted along it
compound,measurement,setting,value
O=c1ccc2c(I)c(O)ccc2o1 [drawing 14],symptoms of the cancer,solid tumor colon cancer,markedly reduced
Nc1ncnc2c1ncn2[C@@H]1O[C@H](COP(=O)(O)OP(=O)(O)OP(=O)(O)O)[C@@H](O)[C@H]1O [ATP],inhibitory action of ATP on PARP-1 enzymatic activity,[1],abolished
same,effect of the mutation on the inhibitory action of ATP on PARP-1,[2],negligible effect
same,inhibition of PARP-1 activity in nuclei,[3],80%
same,"response to DNA damage by BCNU as assayed by PARP-1 activity, with externally added ATP",[4],completely removed
same,effect on PARG activity (decay of long PAR polymer),[5],significantly accelerates
same,exonucleotidase activity of PARG (liberation of ADP-ribose),"purified PARG; 6 mM ATP, long chain polymers as substrate, FIG. 6",activation
same,acceleration of decay of longer ADP-ribose oligomers by PARG,"purified PARG; long-chain PAR (average chain length 50 ADPR), PARG 15 mU/assay, FIG. 5",accelerated
same,acceleration of degradation of short ADP-ribose oligomers by PARG,"purified PARG; short-chain PAR, PARG 15 mU/assay, FIG. 5",not accelerated
O=c1ccc2c(I)c(O)ccc2o1 [drawing 26],symptoms of CNS disease,CNS disease,markedly reduced
O=c1ccc2c(I)c(O)ccc2o1 [drawing 20],symptoms of inflammation,inflammation,markedly reduced
